# Test results from US20200093751A1, “CHEMOPROTECTIVE/CHEMOACTIVE NANODROPLETS AND METHODS OF USE THEREOF” (priority 2016, published 2020).
# Legend:
# [1] = Toxicity / chemoprotective effect (body weight) in NCI-H460 tumor-bearing nude mice; assay type: in vivo
# Protocol: When tumor volume reached approximately 50 mm^3, groups of tumor-bearing mice (n=5) were injected through the tail vein twice per week for a total of three weeks with a dose of 30 mg/kg per animal.
# When tumor volume reached approximately 50 mm^3, groups of tumor-bearing mice (n=5) were injected through the tail vein twice per week for a total of three weeks with a dose of 30 mg/kg per animal of Tonp or once per week with a dose of 15 mg/kg per animal of TAXOTERE®.
# The Tonp was injected one day before TAXOTERE® starting just before the second injection of TAXOTERE®.
# Toxicity of the nanodroplet formulations was further assessed with respect to groups of mice with tumors. NCI-H460 human lung cancer cells were injected subcutaneously on the backs of nude mice to establish a tumor model. When tumor volume reached approximately 50 mm^3, mice were divided into treatment groups, which typically consisted of five mice. Mice were injected through the tail vein twice per week for three weeks with 30 mg/kg of Tonp or once per week with a dose of 15 mg/kg of TAXOTERE®.
# One group of tumor-bearing mice was injected with TAXOTERE® through the tail vein once per week at a dose of 15 mg/kg per animal. […] Tonp, when used, was injected one day before TAXOTERE® starting just before the second injection of TAXOTERE®.
# [2] = test system: NCI-H460 human lung cancer model; experiment: Tumor growth inhibition in NCI-H460 human lung cancer model in nude mice; assay type: in vivo; conditions: TAXOTERE 15 mg/kg tail vein once per week, two injections; treatment ended on 13th day
# Protocol: NCI-H460 cell suspensions were injected subcutaneously on the backs of mice to establish a tumor model. When tumor volume reached approximately 50 mm^3, groups of tumor-bearing mice (n=5) were injected through the tail vein once per week for a total of two weeks with a dose of 15 mg/kg per animal for TAXOTERE® or 30 mg/kg per animal twice per week for three weeks for Tonp nanodroplets. On the 20th day, the tumor growth inhibition of d-T3 (Tonp) treatment was 70%.
# NCI-H460 cell suspensions were injected subcutaneously on the backs of mice to establish the tumor model. […] The Tonp was injected one day before TAXOTERE® starting just before the second injection of TAXOTERE®.
# NCI-H460 human lung cancer cells were injected subcutaneously on the backs of nude mice to establish a tumor model. When tumor volume reached approximately 50 mm^3, mice were divided into treatment groups, which typically consisted of five mice.
# In one experiment, tumor-bearing mice were either left untreated, were treated with TAXOTERE®, or were treated with Tonp nanodroplets. Mice were injected through the trail vein once per week with 15 mg/kg of TAXOTERE® or twice per week for three weeks with a dose of 30 mg/kg of Tonp.
# One group of tumor-bearing mice was injected with TAXOTERE® through the tail vein once per week at a dose of 15 mg/kg per animal. […]
structure (smiles),measurement,setting,value
"CC(=O)O[C@@]12CO[C@@H]1C[C@H](O)[C@@]1(C)C(=O)[C@H](O)C3=C(C)[C@@H](OC(=O)[C@H](O)[C@@H](NC(=O)OC(C)(C)C)c4ccccc4)C[C@@](O)([C@@H](OC(=O)c4ccccc4)[C@H]21)C3(C)C [TAXOTERE®, docetaxel]",body weight after about two weeks of treatment,[1]; TAXOTERE 15 mg/kg once per week,significantly decreased in body weight
same,body weight after two injections of TAXOTERE,"[1]; TAXOTERE 15 mg/kg once per week without Tonp, treatment ended on 13th day",severe body weight drop
same,tumor growth inhibition,[2],71%
